Results as given in paper PMC3931136 (Scientific Reports, 2014).

Tested on: S. suis BgaC
Experiment: p-nitrophenol release, absorbance at […] nm
Assay type: biochemical, Streptococcus suis
Conditions: pH 5.5, 42 °C, 30 min (stated optimum); PBS, 10 mM MgCl2, 10 mM DTT

Km: 398 µM
Structure (SMILES): O=[N+]([O-])c1ccc(O[C@@H]2O[C@H](CO)[C@H](O)[C@H](O)[C@H]2O)cc1 [pNPG, p-nitrophenyl-β-galactopyranoside]
